Format in all cases: physicochemical
A short description of one series: XPS surface composition. The following applies: 25% bulk drug loading with HPMCAS. How it is done: X-ray Photoelectron Spectroscopy (XPS). XPS experiments were performed using a Physical Electronics Quantera SXM instrument equipped with a monochromatic Al Kα x-ray source (hν = 1486.6 eV) and a concentric hemispherical analyzer. Charge neutralization was performed using low energy (1.5 eV) electrons and low energy (8 V) Ar^+ ions. The binding energy axis was calibrated using sputter cleaned Cu foil (Cu 2p3/2 = 932.62 eV) and Au foil (Au 4f7/2 = 83.96 eV). Spectra were charge references to C-(C,H) at 284.8 eV. All measurements were performed at an electron takeoff angle of 45° relative to the sample platen plane.

Another series in a line: Log P of posaconazole. The text has this:
(§1) Table 1 Physical/chemical properties of posaconazole.

Series [1] in a line: Two-stage biorelevant dissolution (SGF then FaSSIF). As to the method: Simulated gastric fluid (SGF) was made with sodium chloride (34.2 mM), and the pH was adjusted to 1.8 with 12N HCl. The 2× fasted state simulated intestinal fluid (FaSSIF) was prepared using simulated intestinal fluid (SIF) powder (purchased from Biorelevant.com Ltd., London, UK), sodium phosphate monobasic monohydrate (114.5 mM), and sodium chloride (423.7 mM), and the pH was adjusted to 6.9 [35, 36].
Two-stage dissolution was performed on the solid dispersion powder at the dose relevant level of drug quantity using the Distek Model 2500 dissolution system (North Brunswick, NJ USA) with USP Apparatus 2 (paddles) setup. The paddles were operated at 100 rpm, and the dissolution medium was maintained at 37 ± 0.5 °C. The SGF medium of 250 mL was added for the first stage, and then FaSSIF medium of 250 mL at 30 min was added for the second stage to achieve the correct pH, ionic strength, and bile salt levels for FaSSIF. The time points that the sample was withdrawn were indicated by the dots in the dissolution plots. At each time point, ~2 mL was sampled and syringe-filtered (0.45 µm PVDF filter). The filtrate was diluted with diluent (water:acetonitrile = 1:1 v/v) and analyzed by an Agilent HPLC (Santa Clara, CA, USA) with a UV detector. […]

Series [2] can be described thus: Solubility of crystalline posaconazole.
A short description of another series: pKa of posaconazole.
Text: as §1

The logP is the decadic logarithm of the partition coefficient of the neutral form, usually between octanol and water. Low readings indicate a more hydrophilic compound, high ones a more lipophilic compound. One may read the solubility as how much of the substance goes into solution per volume. Broadly, the pKa is the pH at which an ionisable group is half protonated.

Values after ≈ are worked out from the molar mass of the structure shown. Where two headings read alike, the source gives them in different places.

Turning to `CC[C@@H]([C@H](C)O)n1ncn(-c2ccc(N3CCN(c4ccc(OC[C@@H]5CO[C@@](Cn6cncn6)(c6ccc(F)cc6F)C5)cc4)CC3)cc2)c1=O` [posaconazole], in “XPS surface composition”, the “~API Loading on Surface Based on F and N” value was roughly 100%. In addition, in “Log P of posaconazole”, the logP is 5. In addition, the “drug release in SGF stage (in words)” value in series [1] (SGF pH 1.8, first 30 min) is reported as “the percent dissolved is high”. For the same molecule, the “drug release in FaSSIF stage (in words)” value in series [1] (second stage, FaSSIF) is on record as “significantly drops to approximately the crystalline solubility”. The solubility is 2 µg/mL (≈ 2.85 µM) in series [2] (fasted state simulated intestinal fluid (FaSSIF), fassif, read-out: Solubility); 790 µg/mL (≈ 1130 µM) in series [2] (pH 1, read-out: Solubility); 3 µg/mL (≈ 4.28 µM) in series [2] (pH 3, read-out: Solubility); 1 µg/mL (≈ 1.43 µM) in series [2] (pH 7, read-out: Solubility); roughly 790 µg/mL (≈ 1130 µM) in series [2] (simulated gastric fluid (SGF), pH 1.8, read-out: crystalline solubility). The pKa in “pKa of posaconazole” (piperazine N) is 3.6; in the series “pKa of posaconazole” (triazole N), 4.6.

These data come from PMC8401923, “Processing Impact on In Vitro and In Vivo Performance of Solid Dispersions—A Comparison between Hot-Melt Extrusion and Spray Drying” (Pharmaceutics, 2021).
